Results published in paper PMC6816246, “A Novel Substrate Radiotracer for Molecular Imaging of SIRT2 Expression and Activity with Positron Emission Tomography” (Molecular imaging and biology, 2018).

Biological target: T1, SIRT2 (Homo sapiens, UniProt Q8IXJ6)
T1 sequence (Q8IXJ6 2-389): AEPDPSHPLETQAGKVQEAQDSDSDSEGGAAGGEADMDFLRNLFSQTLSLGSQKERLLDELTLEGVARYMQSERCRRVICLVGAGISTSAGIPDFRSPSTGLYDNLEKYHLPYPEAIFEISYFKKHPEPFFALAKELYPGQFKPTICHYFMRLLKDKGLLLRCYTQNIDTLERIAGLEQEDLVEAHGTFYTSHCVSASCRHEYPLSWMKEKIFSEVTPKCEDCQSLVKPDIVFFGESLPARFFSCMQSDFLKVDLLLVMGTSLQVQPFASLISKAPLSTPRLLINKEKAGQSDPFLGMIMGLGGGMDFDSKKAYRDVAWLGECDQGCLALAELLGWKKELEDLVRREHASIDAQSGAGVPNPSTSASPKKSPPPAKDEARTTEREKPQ
Assay: fluorogenic enzyme kinetics with recombinant SIRT2 (Km)
Format: biochemical

Row | Substance | Km [µM]
1 | Boc-Lys(myristoyl)-AMC [compound 5] | 2.36
2 | Boc-Lys(3-F-propanoyl)-AMC [compound 1] | 55.5

Results, then the substance that gave them:

Row | Km [µM] | Substance
3 | 18 | Boc-Lys(10-F-decanoyl)-AMC [compound 3]
4 | 44.9 | Boc-Lys(6-F-hexanoyl)-AMC [compound 2]
5 | 8.07 | Boc-Lys(12-F-dodecanoyl)-AMC [compound 4]
